ChEMBL document CHEMBL1155681, “Structure and antibacterial activity ofp6 new labdane diterpenoid from Salvia leriaefolia” (2000)

Columns and labels:
Format in all cases: functional
[1] = system: Escherichia coli; test: Antibacterial activity against Escherichia coli ATCC 25922
[2] = system: Staphylococcus aureus; test: Antibacterial activity against Staphylococcus aureus ATCC 25923 at 0.4 mM; details: read-out: IZ
[3] = system: Pseudomonas aeruginosa; test: Antibacterial activity against Pseudomonas aeruginosa ATCC 85327

C=C/C(C)=C/C[C@H]1C(=C)C[C@H]2OC(=O)[C@@]3(C)CCC[C@@]1(C)[C@@H]23
inhibition zone (IZ) [1]: 13 mm | zone of inhibition at 400 µM [2]: 20 mm | inhibition zone (IZ) [3]: 12 mm
